Results taken from patent US4593104A, “2-halo-N-(azole-1-yl-methyl)-substituted acetanilides” (BASF Aktiengesellschaft, priority 1976, dated 1986).

Experiments:
Alopec. myosur. [1] = assay: preemergence application in the open, % damage; assay type: in vivo
Experimental: (§1) The experiments were carried out on small plots. The soil was a sandy loam having a pH of from 5 to 6 and containing from 1 to 1.5% humus. The treatment was preemergence, the active ingredients being applied immediately or at the latest 3 days after sowing. The crop plants were sown in rows. The weed flora was made up of the most widely varying species and was natural; the weed flora depended on the time of the year and in part on the crop (e.g., spring-germinating, summer-germinating). The substances were emulsified or suspended in water as the vehicle, and applied by means of a motor-driven plot spray mounted on a hitch. When no rain fell, the plots were watered to ensure germination and growth of the crop plants and weeds. All the experiments were run for several weeks. Over this period, assessments were made at certain intervals on the 0 to 100 scale.

Anth./Matric. = assay: preemergence application in the open, % damage; assay type: in vivo
Experimental: as §1

Brassica napus = assay: preemergence application in the open, % damage; assay type: in vivo
Experimental: as §1

Lamium spp. = assay: preemergence application in the open, % damage; assay type: in vivo
Experimental: as §1

Stellaria media = assay: preemergence application in the open, % damage; assay type: in vivo
Experimental: as §1

Alopec. myosur. [2] = assay: preemergence treatment in the greenhouse, % damage; assay type: in vivo
From the text: (§2) The vessels employed were plastic flowerpots having a volume of 300 cm^3; the substrate was a sandy loam containing about 1.5% humus. The seeds of the test plants (see Table 1) were sown shallow, and separated according to species. In the case of Cyperus esculentus, pregerminated tubers were planted. In the preemergence treatment, the active ingredients were then immediately applied to the surface of the soil. They were suspended or emulsified in water as the vehicle, and sprayed through atomizing nozzles. After the agents had been applied, the vessels were lightly sprinkler-irrigated to set germination and growth going, and to activate the chemical agents. The vessels were then covered with transparent plastic hoods until the plants had taken root. This cover ensured uniform germination of the test plants (to the extent that this was not impaired by the chemicals), and prevented readily volatile substances from evaporating.
(§3) For postemergence treatment, the plants were first grown to a height of from 3 to 10 cm, depending on their habit, before treated. Hoods were not placed on the pots. The experiments were set up in the greenhouse, hotter areas (25° to 40° C.) being preferred for heat-loving species, and 15° to 30° C. for plants from moderate climates. The experiments were carried out for from 4 to 6 weeks. During this period the plants were tended and their reaction to the various treatments was assessed. The following tables contain the substances investigated, the application rates in kg/ha of active ingredient, and the test plant species. Assessments were made on a 0 to 100 scale, 0 denoting no damage or normal emergence, and 100 denoting no emergence or complete destruction of at least the visible plant parts.

Amar. retro. = assay: preemergence treatment in the greenhouse, % damage; assay type: in vivo
From the text: as §2, §3

Cyp. diff. = assay: preemergence treatment in the greenhouse, % damage; assay type: in vivo
From the text: as §2, §3

Echin. c.g. = assay: preemergence treatment in the greenhouse, % damage; assay type: in vivo
From the text: as §2, §3

Euph. gen. = assay: preemergence treatment in the greenhouse, % damage; assay type: in vivo
From the text: as §2, §3

Matric. spp. = assay: preemergence treatment in the greenhouse, % damage; assay type: in vivo
From the text: as §2, §3

Setaria spp. = assay: preemergence treatment in the greenhouse, % damage; assay type: in vivo
From the text: as §2, §3

Sorgh. halep. = assay: preemergence treatment in the greenhouse, % damage; assay type: in vivo
From the text: as §2, §3

Stell. med. = assay: preemergence treatment in the greenhouse, % damage; assay type: in vivo
From the text: as §2, §3

Gossyp. hirs. = assay: preemergence treatment in the greenhouse, % damage; assay type: in vivo, Gosspyium hirsutum
From the text: as §2, §3

Zea mays = assay: preemergence treatment in the greenhouse, % damage; assay type: in vivo
From the text: as §2, §3

Glyc. max = assay: preemergence treatment in the greenhouse, % damage; assay type: in vivo, Glycine max
From the text: as §2, §3

Sorgh. bicol. = assay: preemergence treatment in the greenhouse, % damage; assay type: in vivo, Sorghum bicolor
From the text: as §2, §3

Beta vulg. = assay: preemergence treatment in the greenhouse, % damage; assay type: in vivo, Beta vulgaris
From the text: as §2, §3

| SMILES | % damage (Alopec. myosur. [1]; 2.0 kg/ha) | % damage (Alopec. myosur. [1]; 4.0 kg/ha) | % damage (Brassica napus; 2.0 kg/ha) | % damage (Brassica napus; 4.0 kg/ha) | % damage (Lamium spp.; 2.0 kg/ha) | % damage (Lamium spp.; 4.0 kg/ha) | % damage (Stellaria media; 2.0 kg/ha) | % damage (Stellaria media; 4.0 kg/ha) | % damage (Alopec. myosur. [2]; 1.0 kg/ha) | % damage (Amar. retro.; 1.0 kg/ha) | % damage (Setaria spp.; 1.0 kg/ha) | % damage (Alopec. myosur. [2]; 2.0 kg/ha) | % damage (Amar. retro.; 2.0 kg/ha) | % damage (Setaria spp.; 2.0 kg/ha) | % damage (Zea mays; 1.0 kg/ha) | % damage (Zea mays; 2.0 kg/ha) | % damage (Glyc. max; 1.0 kg/ha) | % damage (Glyc. max; 2.0 kg/ha) | % damage (Sorgh. bicol.; 1.0 kg/ha) | % damage (Sorgh. bicol.; 2.0 kg/ha) | also measured |
| --- | --- | --- | --- | --- | --- | --- | --- | --- | --- | --- | --- | --- | --- | --- | --- | --- | --- | --- | --- | --- | --- |
| CCc1cccc(C)c1N(Cn1cncn1)C(=O)CCl [Compound 129] | 35% | 68% | 7.5% | 22.5% | 45% | 90% | 24% | 49% |  |  |  |  |  |  |  |  |  |  |  |  | % damage (Anth./Matric.; one value printed for two rates (2.0 4.0 kg/ha)): 35% |
| CCc1cccc(C)c1N(Cn1cncn1)C(=O)CCl [Compound 191] | 30% | 80% | 5% | 20% | 40% | 85% | 18% | 45% |  |  |  |  |  |  |  |  |  |  |  |  | % damage (Anth./Matric.; 2.0 kg/ha): 53% |
| Cc1ccc(C)c(N(Cn2cncn2)C(=O)CCl)c1C [Compound 136] |  |  |  |  |  |  |  |  | 90% | 70% | 100% |  |  |  |  |  |  |  |  |  | % damage (Alopec. myosur. [2]; 0.5 kg/ha): 50%; % damage (Amar. retro.; 0.5 kg/ha): 70%; % damage (Cyp. diff.; 0.5 kg/ha): 90%; % damage (Cyp. diff.; 1.0 kg/ha): 90%; % damage (Echin. c.g.; 0.5 kg/ha): 95%; % damage (Echin. c.g.; 1.0 kg/ha): 95%; % damage (Euph. gen.; 0.5 kg/ha): 45%; % damage (Euph. gen.; 1.0 kg/ha): 65%; % damage (Matric. spp.; 0.5 kg/ha): 50%; % damage (Matric. spp.; 1.0 kg/ha): 90%; % damage (Setaria spp.; 0.5 kg/ha): 90%; % damage (Sorgh. halep.; 0.5 kg/ha): 80%; % damage (Sorgh. halep.; 1.0 kg/ha): 80%; % damage (Stell. med.; 0.5 kg/ha): 30%; % damage (Stell. med.; 1.0 kg/ha): 80%; % damage (Gossyp. hirs.; 0.5 kg/ha): 10%; % damage (Gossyp. hirs.; 1.0 kg/ha): 10% |
| Cc1ccn(CN(C(=O)CCl)c2ccccc2C(C)C)n1 [Compound 72] |  |  |  |  |  |  |  |  | 100% | 95% | 90% | 100% | 95% | 95% | 0% | 10% | 10% | 20% | 20% | 40% | % damage (Beta vulg.; 1.0 kg/ha): 10%; % damage (Beta vulg.; 2.0 kg/ha): 10% |
| Cc1cccc(C)c1N(Cn1nc(C)c(Cl)c1C)C(=O)CCl [Compound 106] |  |  |  |  |  |  |  |  | 100% | 95% | 90% | 100% | 95% | 95% | 15% | 50% | 10% | 10% | 70% | 70% | % damage (Beta vulg.; 1.0 kg/ha): 10%; % damage (Beta vulg.; 2.0 kg/ha): 10% |
